Test results: patent EP0515684A1, “INHIBITOR OF DENATURED LDL FORMATION” (Chugai Seiyaku Kabushiki Kaisha, priority 1990, dated 1991)

Experiments:
rabbit LDL = assay: Amount of thiobarbituric acid reactive substances (TBARS) formed on Cu2+ oxidation of LDL; format: biochemical; conditions: 5 µM of Cu²⁺ added to rabbit LDL, followed by heating
Procedure: (§1) The biological properties of the compounds as shown hereinafter were examined by the following methods. • (1) The amount of thiobarbituric acid reactive substances: 5 µM of Cu²⁺ was added to rabbit LDL, prepared by the method reported by Havel et al., followed by heating. Then the antioxidative effect of each compound was examined by using the thiobarbituric acid reactive substances (TBARS) thus formed as the guidance. […] 0.5 ml of an n-butanol solution containing 0.2 µM of MCLA and 10 mM of linoleic acid was introduced into a vial for luminescence analysis and the luminescence due to autoxidation was measured in a thermostat at 37°C. […] To the obtained plasma, were added EDTA-NaN₃ (a 5% solution of pH 7.4) and a benzamidine solution (60 mg/ml) respectively in amounts of 0.8 ml and 0.5 ml per 100 ml of the plasma. Then rabbit or human LDL (1.019 < d < 1.063) was prepared by ultracentrifugation in accordance with the method of Havel et al.*. After performing the ultracentifugation again, the LDL was washed and concentrated. Then it was dialyzed against a 150 mM NaCl - 2 mM Na₂HPO₄ solution at 4°C and KBr was removed. The protein content was determined by Lowry method** and then the LDL was subjected to the subsequent procedure. (Measurement of electrophoretic mobility in agarose gel) 10 µM of Cu²⁺ and a specimen were added to an LDL-containing solution (3.00 µg protein/ml). After incubating at 37°C for approximately 24 hours, a portion (1 µl) thereof was applied onto an agarose gel film (Universal Film, manufactured by Corning Co.) and then subjected to electrophoresis (Agarose Gel Electrophoresis System for Lipoprotein, manufactured by Corning Co.). Thus the mobility was measured by staining lipids with Fat Red 7B. […] After 3 days, peritoneal macrophages were collected from the mouse and incubated in an RPMI 1640 medium containing 10% of FBS. The macrophages were used in the • examination on the next day.

rabbit or human LDL = assay: Electrophoretic mobility in agarose gel of LDL oxidised with Cu2+; format: biochemical; conditions: 10 µM of Cu²⁺, 37°C approximately 24 hours, expressed by regarding the mobility of LDL as 1.00 (Control 1.61)
Procedure: as §1

| Structure (SMILES) | Formed TBARS (%) (rabbit LDL; Compound conc. 10^-5 M, 10 µM) | Formed TBARS (%) (rabbit LDL; Compound conc. 10^-6 M, 1 µM) | Mobility (rabbit or human LDL; Compound conc. 10 x 10⁻⁶ M) | Mobility (rabbit or human LDL; Compound conc. 100 x 10⁻⁶ M) |
| --- | --- | --- | --- | --- |
| COc1cc(NCc2ccccc2)cc(OC)c1OC [Compound 1, N-benzyl-3,4,5-trimethoxyaniline] | 33 | 49 | 1.17 |  |
| COc1cc(NC/C=C(\C)CCC=C(C)C)cc(OC)c1OC [Compound 118] | 37 | 56 | 1.17 |  |
| CC(C)=CCC/C(C)=C/CCC(C)Nc1ccc(-c2cc(C(C)(C)C)c(O)c(C(C)(C)C)c2)cc1 (stereo not drawn) [Compound 188, 4-[4'-[(trans-1,5,9-trimethyl-4,8-decadienyl)amino]phenyl]2,6-di-tert-butylphenol] |  |  | 1.15 |  |
| Oc1ccc(-c2onc3ccc(Cl)cc23)cc1O [Compound 205, 3-(3',4'-dihydroxyphenyl)-5-chlorobenzoiso-oxazole] |  |  | 1.00 |  |
| COc1cc(NCC2CCCC2)cc(OC)c1OC [Compound 102] | 15 | 27 |  |  |
| COc1cc(CNc2cc(OC)c(OC)c(OC)c2)cc(OC)c1OC [Compound 35] | 28 | 52 |  |  |
| COc1cc(NCc2c(F)c(F)c(F)c(F)c2F)cc(OC)c1OC [Compound 29] | 20 | 39 |  |  |
| COc1cc(NCc2ccc(CO)cc2)cc(OC)c1OC [Compound 67] | 35 | 55 |  |  |
| COc1cc(NC2CCCC3CCCCC32)cc(OC)c1OC (centres unmarked) [Compound 109] | 10 | 20 |  |  |
| COc1cc(NCCCc2ccc(CO)cc2)cc(OC)c1OC [Compound 75] | 16 | 38 |  |  |
| O=C(c1ccc(O)c(O)c1)N1CCN(C(c2ccccc2)c2ccccc2)CC1 [Compound 197] |  |  | 1.00 |  |
| C=CCC(Nc1cc(OC)c(OC)c(OC)c1)c1ccccc1 (centres unmarked) [Compound 80] | 17 | 33 |  |  |
| CC(C)(C)c1cc(CNCc2ccccc2)cc(C(C)(C)C)c1O [Compound 185, N-benzyl-3,5-di-tert-butyl-4-hydroxybenzylamine] |  |  | 1.15 |  |
| COc1cc(NCc2ccc(OC(C)(C)C(=O)O)cc2)cc(OC)c1OC [Compound 56] | 59 | 77 |  |  |
| COc1cc(NCc2ccc(OC/C=C(\C)CC/C=C(\C)CCC=C(C)C)cc2)cc(OC)c1OC [Compound 49] | 39 | 78 |  |  |
| COc1cc(NCCc2ccccc2)cc(OC)c1OC [Compound 69] | 18 | 36 |  |  |
| COc1cc(NC(CCc2ccccc2)C(C)C)cc(OC)c1OC (centres unmarked) [Compound 83] | 15 | 28 |  |  |
| COc1cc(NC(CC(C)C)c2ccccc2)cc(OC)c1OC (centres unmarked) [Compound 81] | 15 | 25 |  |  |
| COc1cc(NCc2ccccc2Br)cc(OC)c1OC [Compound 28] | 13 | 30 |  |  |
| C=CCC(Nc1cc(OC)c(OC)c(OC)c1)C1CCCCC1 (centres unmarked) [Compound 107] | 7 | 20 |  |  |
| CCCCCCCCCCCCNc1cc(OC)c(OC)c(OC)c1 [Compound 113] | 29 | 66 |  |  |
| CC(C)=CCC/C(C)=C\CC/C(C)=C/Cn1cnc2c1C(=O)C(C)=C(C)C2=O [Compound 206, 5,6-dimethyl-1-[(2E,6Z)-3,7,11-trimethyldodeca-2,6,10-trienyl]-4,7-benzimidazoledione] |  |  |  | 1.00 |
| COc1cc(NCCCCc2ccccc2)cc(OC)c1OC [Compound 71] | 7 | 20 |  |  |
| O=C(Nc1ccc(C(=O)c2ccccc2)cc1)c1ccc(O)c(O)c1 [Compound 194] |  |  | 1.00 |  |
